According to patent US12053480B2, “Methods and pharmaceutical compositions for treating peripheral demyelinating diseases” (INSERM (INSTITUT NATIONAL DE LA SANTE ET DE LA RECHERCHE …, priority 2015, dated 2024):
Read-outs that look alike come from different tables or passages of the source.

Legend:
[1] = tested on: mSC mitochondria; test: Mitochondrial motility imaging (mito-dsRed2) in mSC of mouse sciatic nerve; assay type: in vivo; settings: after nerve crush
Method: Mice were anesthetized with isoflurane inhalation and placed under a Stemi2000 microscope (Zeiss). Incision area was shaved and cleaned using betadine solution. After incision, the gluteus superficialis and biceps femoris muscles were separated to reveal the cavity traversed by the sciatic nerve. The nerve was lift out using spatula and a thin glass needle filled with viral solution (8 μl) was introduced into the nerve with a micromanipulator. This solution was injected over 30 min with short pressure pulses using a Picospritzer III (Parker Hannifin) coupled to a pulse generator. After injection, the nerve was replaced into the cavity, the muscles were readjusted, and the wound was closed using clips (for further details see Gonzalez et al., 2014^3).
TRO19622 drug (Tocris bioscience, Ref. 2906) was diluted in ethanol to 20 mM and then, the solution was diluted in sterile PBS to 20 μM. TRO19622 treatments were realized by 3 mg/kg intraperitoneal (IP) injections of 20 mM solution or by intra sciatic nerve injections of 2 μl of drug solution 2 μM using a Hamilton syringe or a glass needle in sterile conditions 30 minutes before multiphoton image acquisitions or immunohistochemistry and demyelination studies respectively. Methyl jasmonate drug (Sigma-Aldrich, Ref. 392707) was diluted in 1 ml of sterile PBS to 1M or 3M. Methyl jasmonate treatments were realized by intra sciatic nerve injections of 1 μl of drug solution using a glass needle and micromanipulator in sterile conditions following the same virus injections procedure (see in vivo virus injection in the sciatic nerve method) two hours before multiphoton image acquisition. […] All drug concentrations were previously evaluated by Bordet et al, 2007^5; Goldin et al, 2008^6; Sharov et al, 2007^7.
First injected mouse was anesthetized with 5% of isoflurane a 1.5% of oxygen into the anesthesia system box (World Precision Instruments, Ref. EZ-B800) for 5 minutes. Anesthesia controls were realized^8. Then, mouse was placed in anesthesia mask and the incision area was shaved and cleaned with betadine and ethanol 70% solution. Incision was realized using a scalpel and the skin was retracted using forceps in order to expose the gluteus superficialis and bleeps femoris muscles. Next, the connective tissue that connects both muscles was cut and the sciatic nerve was gently lifted out using a spatula. A flexible bridge was slide below sciatic nerve and it was placed into a plastic first pool fixed to the bridge. Mouse was placed under the multiphoton microscope, the bridge was fixed using magnetic brackets to avoid physiological movement and mouse legs were fixed using clippers. Microscope dark box temperature is controlled to 37° C. during all time-lapse imaging. Finally, a second pool was fixed to the first pool using a drop of agarose low melting 3% (Promega, Ref. V2111) in Leibovitz's L15 medium (Gibco Life Technologies) and filled with deionized water to immerse the objectives 20× or 63× (Carl Zeiss Microscopy).
All time-lapse images were obtained with a multiphoton microscope Zeiss LSM 7 MP OPO. Mitochondria motility images were acquired by time-lapse recording of one image every five minutes during five hours at 920 nm. GCaMP2 and SypHer probe images were acquired by time-lapse recording of one image every fifteen minutes during five hours at 985 nm. Images were acquired to constant 1% of laser intensity to 100 msec of acquisition time with 512×512 resolution and 10 images of z-stack of 20 μm. […]

[2] = tested on: phospho-ERK1/2, phospho-p38, phospho-JNK and phospho-c-jun; test: Western blot of MAPK demyelination pathways in CMT1A rats; assay type: in vivo, rat; settings: for activation of phospho-ERK1/2, phospho-p38, phospho-JNK and phospho-c-jun: after 15 and 30 days of treatment
Source text: (§1) While demyelinating diabetes peripheral neuropathy is a commonly acquired disease, demyelination is also the characteristic feature of a large number of inherited diseases called Charcot-Marie-Tooth diseases (CMT). We therefore sought to test whether the inhibition of VDAC1 function could prevent demyelination in these diseases. We choose CMT1A rat strain^42 as this is arguably the most representative animal model of Charcot-Marie-Tooth disease, mimicking CMT1A the most prevalent CMT in humans^10. Twelve weeks old CMT1A rats were daily treated with TRO19622 for 15 or 30 days and one day or two months after treatment, we analyzed MAPK demyelination pathways by western blot. […] However, these effects disappeared two months after treatment. Then we analyzed phospho-c-jun activation in mSC using immunohistochemistry. […] Next, we measured Schwann cell demyelination and g-ratio by toluidine blue staining on semi-thin sciatic nerve sections and on thin sections using electron microscopy.

[3] = tested on: CMT1A rats; test: Sciatic nerve morphometry (toluidine blue, electron microscopy) in CMT1A rats; assay type: in vivo, rat
Method: Sciatic nerves of 20 and 28 weeks old diabetic mice or 16 and 24 weeks old CMT1A rats treated with TRO19622 drug or PBS were fixed for 20 min in situ with 4% PFA and 2.5% glutaraldehyde, in 0.1 M phosphate buffer (pH7.3). Then nerves were removed and postfixed overnight in the same buffer.
After washing 30 min in 0.2M PBS phosphate buffer, the nerves were incubated with 2% osmic acid in 0.1M phosphate buffer for 90 minutes at room temperature. Then, samples were washed in 0.2M PBS phosphate buffer, dehydrated using ethanol gradient solutions and embedded in epoxy resin. For electron microscopy of sciatic nerves, ultrathin (70 nm) cross-sections were cut and stained with 1% uranylacetate solution and lead-citrate and analyzed using a HITACHI H7100 electron microscope at the ‘Centre des Resources en Imagerie Cellulaire’ (CRIC) (for further details see Cotter et al., 2010^9). Semi-thin cross-sections (0.7 μm) were cut using a microtome (Leica, RM 2155) with a diamond knife (Histo HI 4317, Diatome). Sections were stained with blue of toluidine and observed using light microscope. G-ratio was determined using GRatioCalculator plugin of Image J. At less 200 fibers per animal were analysed.
as §1

[4] = tested on: CMT1A rats; test: Electrophysiology (CMAP, NCV) in CMT1A rats; assay type: in vivo, rat; settings: CMT1A rats treated daily for one month
Method: Standard electroneurography was performed before, during and after TRO 19622 drug treatment on CMT1A rats and diabetic mice that were anesthetized with 3% isoflurane. A pair of steel needle electrodes (AD Instruments, MLA1302, Oxford, UK) was placed subcutaneously along the nerve at sciatic notch (proximal stimulation). A second pair of electrodes was placed along the tibial nerve above the ankle (distal stimulation). Supramaximal square wave pulses lasting 10 ms and 1 mA for mice and 3.6 mA for rats were delivered using a PowerLab 26T (AD Instruments, Oxford, UK). Compound muscle action potential (CMAP) was recorded from the intrinsic foot muscles using steel electrodes. Both amplitudes and latencies of CMAP were determined. The distance between the two sites of stimulation was measured alongside the skin surface with fully extended legs, and nerve conduction velocities (NCVs) were calculated automatically from sciatic nerve latency measurements (for further details Fledrich et al., 2014^10).

[5] = cited from earlier work

## CC(C)CCC[C@@H](C)[C@H]1CC[C@H]2[C@@H]3CCC4=C/C(=N\O)CC[C@]4(C)[C@H]3CC[C@]12C [TRO19622, (NZ)—N-[(8S,9S,10R,13R,14S,17R)-10,13-dimethyl-17-[(2R)-6-methylheptan-2-yl]-1,2,6,7,8,9,11,12,14,15,16,17-dodecahydrocyclopenta[a]phenanthren-3-ylidene]hydroxylamine]
[1]
  changes induced by nerve crush in mitochondrial motility not abrogated: 20%
[2]
  activation of phospho-ERK1/2, phospho-p38, phospho-JNK and phospho-c-jun: significant down-regulation
[2]; listed as TRO16922
  activation of phospho-ERK1/2, phospho-p38, phospho-JNK and phospho-c-jun: prevented
[2]; two months after treatment
  down-regulation of MAPK demyelination pathways after treatment stop: disappeared
[3]
  g-ratio of myelinated fibers: significant increase
  number and diameter of axons in the nerve: increased
  number of demyelinated fibers: reduction
[3]; listed as TRO16922
  g-ratio of myelinated fibers: restored a correct g-ratio
  number and diameter of axons in the nerve: rescued axonal loss
[4]
  CMAP amplitude: significant increase
  nerve conduction velocity: significant increase
[4]; listed as TRO16922
  nerve conduction velocity: largely improved
[5]
  safety in humans: safe
